{
  "source": "a melting point compilation (Tetko et al.; mined from patent text by program, amines drawn as free bases though some values may be those of a salt)",
  "data": [
    {"units": {"melting point": "°C"}, "values": [
      {"smiles": "CCOC(=O)/C=C/c1ccc(OCOC)c(C)c1OCc1ccc(Cl)cc1Cl", "melting point": "110 to 112"},
      {"smiles": "CC1(CF)C=C(C(=O)NCCC#N)c2cc([N+](=O)[O-])ccc2O1", "note": "(stereo unspecified)", "melting point": "165 to 167"},
      {"smiles": "CCCCNC(=O)OC1c2nccnc2C(=O)N1c1ccc2ccc(Cl)nc2n1", "note": "(stereo unspecified)", "melting point": 264},
      {"smiles": "Cc1ccc(-c2nc(C(F)(F)F)nc(NN)c2-c2ccccc2)cc1", "melting point": "188 to 191"},
      {"smiles": "CN(C)Cc1c(-c2ccccn2)[nH]c2ncnc(Nc3cccc(Cl)c3)c12", "melting point": "247 to 251"},
      {"smiles": "Fc1cnc2[nH]ccc2c1", "melting point": 110},
      {"smiles": "CN(C)C(=O)C1(CCCN2CCCCC2)CC=CCC1c1ccccc1", "note": "(stereo unspecified)", "melting point": "105 to 106"},
      {"smiles": "Cc1cc(C)c(-n2ccc3c(=O)[nH][nH]c(=O)c32)c(C)c1", "melting point": "> 300"},
      {"smiles": "CCN(CCO)Cc1cc(Nc2nc(Nc3ccc4c(c3OC)CCC(N3CCOCC3)CC4)ncc2Cl)ccc1F", "note": "(stereo unspecified)", "melting point": "81 to 83"},
      {"smiles": "CN(C)c1cccc(NC(=S)NN=Cc2ccc(-c3ncn(-c4ccc(OC(F)(F)F)cc4)n3)cc2)c1", "melting point": "192 to 194"},
      {"smiles": "CCOC(=O)NNc1ccc(-c2ccc(Br)cc2)nn1", "melting point": "190 to 192"},
      {"smiles": "CC(C)(C)OC(=O)NC(C)(C)c1ccc(-c2nc(Nc3ccc(CCN4CCOCC4)cc3)ncc2C#N)cc1", "melting point": 200},
      {"smiles": "N#Cc1ccc(-c2ccc(OC(F)(F)F)c(CNC3CCN(C(=O)CO)CC3c3ccccc3)c2)c(F)c1", "note": "(stereo unspecified)", "melting point": "132 to 134"},
      {"smiles": "COc1cc2c(cc1OS(=O)(=O)C(F)(F)F)[nH]c1cc(-c3ccccc3Cl)c3c(c12)C(=O)NC3=O", "melting point": "248 to 252"},
      {"smiles": "Sc1nnc(-c2cnccn2)s1", "melting point": "224 to 228"},
      {"smiles": "COC(=O)c1nc(-c2ccc(Cl)c(OC)c2F)cc(N)c1Cl", "melting point": "141 to 143"},
      {"smiles": "COc1ccc(-c2nc(Cn3ccnn3)cs2)cc1", "melting point": "89 to 94"},
      {"smiles": "CCc1nc2c(N)nc3cc(-c4ccncc4)ccc3c2n1CC(C)(C)O", "melting point": "> 250"},
      {"smiles": "CCCc1cc(C(O)(CC)CC)ccc1-c1cc(CCc2ccc(CO)c(CO)c2)ccc1C", "melting point": 76},
      {"smiles": "CNC(=S)NS(=O)(=O)c1cc(CCNC(=O)c2cc(Cl)ccc2OC)ccc1-c1ccc(OC)cc1", "melting point": "185 to 188"},
      {"smiles": "N#Cc1cc(F)c(N2C(=O)c3ccccc3C2=O)cc1O", "melting point": 247},
      {"smiles": "COc1ccc(CCNC(=O)C(=O)NO)cc1OC1CCCC1", "melting point": "136 to 137"},
      {"smiles": "CCOC(=O)Cc1c(C(C)C(=O)O)c2cc(OC)ccc2n1Cc1ccc(Cl)cc1", "note": "(stereo unspecified)", "melting point": "163 to 165"},
      {"smiles": "CCCCCS(=O)(=O)NC(=O)CCc1ccc(OCCOC)cc1Oc1ncc(C(F)(F)F)cc1Cl", "melting point": "140 to 142"},
      {"smiles": "CN(C)C(=O)Sc1ccc(Br)cc1C=O", "melting point": "118 to 120"},
      {"smiles": "CC(C)(C)Oc1ccc2c(c1)Oc1ccccc1S2(=O)=O", "melting point": "108 to 110"},
      {"smiles": "CS(=O)c1nnc2n1C=Cc1ccccc1C2", "note": "(stereo unspecified)", "melting point": "176 to 177"},
      {"smiles": "ClCc1ccc2c(c1)Nc1nccnc1S2", "melting point": "161 to 162"},
      {"smiles": "O=c1c2ccccc2sn1CCN1CCN(c2ccccc2)CC1", "melting point": "115 to 117"},
      {"smiles": "COc1cc(C#N)ccc1C1=CC(C)(C)Oc2ccc(C#N)cc21", "melting point": "137 to 139"},
      {"smiles": "CC(C)(C)NS(=O)(=O)c1c(S)cccc1C(F)(F)F", "melting point": 139},
      {"smiles": "COCC1(C)CC(=O)c2cc(C#N)ccc2O1", "note": "(stereo unspecified)", "melting point": "79 to 81"},
      {"smiles": "N=C(N)c1ccc(N2CC(CN3CCC(CC(=O)O)(C(=O)O)CC3)OC2=O)cc1", "note": "(stereo unspecified)", "melting point": 145},
      {"smiles": "Cc1ncc(N2N=C(c3ccc([N+](=O)[O-])cc3)c3cc4c(cc3CC2C)OCO4)o1", "note": "(stereo unspecified)", "melting point": "203 to 205"},
      {"smiles": "CCOC(=O)C(=CN(C)C)C(=O)C(Cl)Cl", "melting point": "71 to 72"},
      {"smiles": "COc1ccc(C(=O)NC2N=C(c3ccccc3F)c3ccccc3NC2=O)cc1OC", "note": "(racemic)", "melting point": "206 to 208"},
      {"smiles": "CCN1CCC2(c3cccc(O)c3)CC(Cc3ccccc3)=CCC2C1", "note": "(stereo unspecified)", "melting point": "160 to 162"},
      {"smiles": "COc1nccc(C)c1NC(=O)c1cccnc1Cl", "melting point": "145 to 146"},
      {"smiles": "Cc1ccccc1Nc1nc(N(C)c2ccccc2)c2cccc(OCCO)c2n1", "melting point": "158 to 160"},
      {"smiles": "OCCCCCCOc1ccc(-c2ccccc2)cc1", "melting point": "92 to 94"},
      {"smiles": "O=C(c1ccc(Nc2ccnc3cc(C(F)(F)F)ccc23)cc1)N1CCC(O)(c2cccc(C(F)(F)F)c2)CC1", "melting point": "278 to 279"},
      {"smiles": "Nc1cc(Cl)c(Cc2ccc(C(=O)c3cnc(Cl)c(Cl)c3)cc2)c(Cl)c1", "melting point": "140 to 145"},
      {"smiles": "Nc1[nH]c(=S)nc2nc[nH]c12", "melting point": "196 to 198"},
      {"smiles": "CCn1c(CCl)nc2c([N+](=O)[O-])cc(Br)cc21", "melting point": "154 to 155"},
      {"smiles": "O=c1ccc(-c2ccc(-n3cnc4c3CCCC4)cc2)n[nH]1", "melting point": "266 to 267"},
      {"smiles": "O=C(O)CCCCCCCNS(=O)(=O)c1ccccc1", "melting point": "82 to 84"},
      {"smiles": "CCCC(=O)Nc1n[nH]c2c(F)c(F)ccc12", "melting point": 191},
      {"smiles": "COc1ccc(C(C)N(C)CCCOc2ccc(S(=O)(=O)c3c(C(C)C)cn4ccccc34)cc2)cc1OC", "note": "(stereo unspecified)", "melting point": "82 to 83"},
      {"smiles": "Cc1ccc(O)cc1NC(=O)CC12CC3CC(CC(C3)C1)C2", "melting point": "255 to 256"},
      {"smiles": "CC(C)N1CC(CCN2CCN(c3ccccc3)CC2)OC1=O", "note": "(stereo unspecified)", "melting point": "74 to 75"},
      {"smiles": "COC(=O)C1CSC(c2ccc(Oc3ccc(C)cc3O)cc2)N1", "note": "(stereo unspecified)", "melting point": "134 to 135"},
      {"smiles": "COc1ccc(S(=O)(=O)N(CCCO)c2ccc(Cl)cc2Cc2c(F)cccc2F)cc1OC", "melting point": 138},
      {"smiles": "CC(C)C1Oc2ccccc2NC1=O", "note": "(stereo unspecified)", "melting point": "118 to 119"},
      {"smiles": "Cc1cn(CCCC(=O)O)c2ccccc12", "melting point": "82 to 84"},
      {"smiles": "Nc1c(C(=O)c2cc(Cl)ccc2[N+](=O)[O-])[nH]c2cc(Cl)ccc12", "melting point": "233 to 234"},
      {"smiles": "CC(=O)Nc1cc(C(=O)c2ccc(S(=O)(=O)CCO)c(NC(C)=O)c2)ccc1S(=O)(=O)CCO", "melting point": "189 to 192"},
      {"smiles": "COC(=O)CSSc1cc(Oc2ccc(C(F)(F)F)cc2Cl)ccc1[N+](=O)[O-]", "melting point": "66 to 68"},
      {"smiles": "O=C(OC1COC(OC(=O)c2ccccc2)CO1)c1ccccc1", "note": "(stereo unspecified)", "melting point": "187 to 189"},
      {"smiles": "Cc1ccc(OCC(=O)c2ccc3c(c2)C(C)(C)CCC3(C)C)cc1O", "melting point": "144 to 145"},
      {"smiles": "NCC1CCc2[nH]c3cc(Cl)c(Cl)cc3c2C1", "note": "(stereo unspecified)", "melting point": "156 to 158"},
      {"smiles": "COC1=NC(=O)N(C)S(=O)(=O)N1", "melting point": "195 to 199"},
      {"smiles": "CCCCCCCCCCCCCCCCCCNC(=O)OCC(CN)OC(=O)NC", "note": "(stereo unspecified)", "melting point": "49 to 50.5"},
      {"smiles": "CC(C)(O)[C@H](Cc1ccccc1)NC(=O)C(Cl)(Cl)Cl", "melting point": 88},
      {"smiles": "CC(C)(C)c1cc(CCc2ccccc2NC(=O)NCC(C)(C)c2ccc(Cl)c(Cl)c2)cc(C(C)(C)C)c1O", "melting point": "165 to 167"},
      {"smiles": "Cc1cccc2c1nc(COc1ccc(Cl)cc1)n2CCC(C)CC1NCCc2ccccc21", "note": "(racemic)", "melting point": "114 to 116"},
      {"smiles": "COc1ccc(C(=O)O)c(OCCN2CCC(c3cn(Cc4ccoc4)c4ncccc34)CC2)c1", "melting point": "91.5 to 93.2"},
      {"smiles": "CN(Cc1ccccc1)c1nc(=O)c2cccnc2s1", "melting point": "112 to 113"},
      {"smiles": "COc1cc(CC(=O)NCCCc2ccc(C)c(C)c2)ccc1OCCNCCN", "melting point": "119 to 120"},
      {"smiles": "Cc1nc2cc3c(cc2n1C)C(=O)OC3=O", "melting point": "310 to 315"},
      {"smiles": "CCOC(=O)c1ncn2c1C(C)N=C(c1ccccc1)c1cc(C#C[Si](C)(C)C)ccc1-2", "note": "(stereo unspecified)", "melting point": "160 to 162"},
      {"smiles": "CCc1nc(C)cn1-c1cc2c(cc1C(F)(F)F)[nH]c(=O)c1nnc(CP(=O)(O)O)n12", "melting point": "> 300"}
    ]}
  ]
}
